How the values were obtained:
[1] = biological target: T1, TLR4 (Homo sapiens, UniProt O00206+Q9Y6Y9); details: Hutchinson et al., Eur J Neurosci. 28:20-29, 2008; cited from earlier work
Target sequence in this assay (O00206 24-839, species assumed): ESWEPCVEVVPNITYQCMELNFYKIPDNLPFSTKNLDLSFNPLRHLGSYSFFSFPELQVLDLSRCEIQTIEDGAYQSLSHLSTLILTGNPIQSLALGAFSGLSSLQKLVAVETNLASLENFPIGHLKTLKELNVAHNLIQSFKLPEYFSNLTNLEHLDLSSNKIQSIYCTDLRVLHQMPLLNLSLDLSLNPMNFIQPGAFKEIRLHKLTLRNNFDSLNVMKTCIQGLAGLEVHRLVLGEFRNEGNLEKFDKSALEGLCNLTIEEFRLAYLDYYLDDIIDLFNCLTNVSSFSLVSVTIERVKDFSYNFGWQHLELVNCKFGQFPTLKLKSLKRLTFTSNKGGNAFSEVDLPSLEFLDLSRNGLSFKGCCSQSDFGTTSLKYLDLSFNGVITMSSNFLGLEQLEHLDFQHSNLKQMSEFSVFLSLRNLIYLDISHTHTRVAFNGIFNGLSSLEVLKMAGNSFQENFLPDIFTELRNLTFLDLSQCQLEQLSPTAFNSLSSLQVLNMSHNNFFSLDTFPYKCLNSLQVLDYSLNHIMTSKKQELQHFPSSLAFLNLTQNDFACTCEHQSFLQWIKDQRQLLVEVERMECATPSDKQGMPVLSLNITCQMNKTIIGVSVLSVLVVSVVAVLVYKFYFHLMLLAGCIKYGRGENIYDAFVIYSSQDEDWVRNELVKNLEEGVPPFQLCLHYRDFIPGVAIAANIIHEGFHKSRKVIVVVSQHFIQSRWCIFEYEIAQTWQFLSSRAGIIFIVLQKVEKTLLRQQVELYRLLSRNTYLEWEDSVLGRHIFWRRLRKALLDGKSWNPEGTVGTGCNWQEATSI
Target sequence in this assay (Q9Y6Y9 17-160 limits assumed, species assumed): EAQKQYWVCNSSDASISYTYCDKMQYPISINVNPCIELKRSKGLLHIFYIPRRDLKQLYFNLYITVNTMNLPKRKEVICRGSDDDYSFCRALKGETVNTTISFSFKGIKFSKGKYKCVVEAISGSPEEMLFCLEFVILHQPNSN

[2] = test system: liver NK cells, NKT cells and mononuclear cells; assay: Murine model of primary biliary cirrhosis (2-OA-BSA and α-GalCer immunized C57BL/6 mice); format: in vivo, mouse; details: 50 mg/kg bid oral; for effect on elevated liver NK cells: week 4 through week 10 (FIG. 3); for effect on elevated liver NKT cells: week 4 through week 10 (FIG. 4); for effect on elevated liver mononuclear cells: week 4 through week 10 (not shown)
From the text: C57BL/6 mice of 8-10 weeks old were immunized with 2-OA-BSA and α-GalCer at week 0, followed by booster injections at 2, 4, and 8. […] Each value represents individual animals. Some animals were lost due to lunging.

[3] = test system: Con A-induced hepatitis; assay: Concanavalin A hepatitis in mouse (murine model of AIH); format: in vivo
[4] = biological target: T1, TLR4; assay: Inhibition of TLR4 activation: NF-κB-inducible SEAP reporter, antagonist assay with LPS; format: cell-based; design: expressed in transfected cells; host or cells: HEK293
Description: The secreted alkaline phosphatase reporter is under the control of a promoter inducible by the transcription factor NF-κB. TLR stimulation in the screening is tested by assessing NF-κB activation in the HEK293 cells expressing a given TLR. This reporter gene allows the monitoring of signaling through the TLR, based on the activation of NF-κB. In a 96-well plate (200μL total volume) containing the appropriate cells (25,000-50,000 cells/well), we add 20μL of your sample or the positive control ligands to the wells. For the antagonist assay, the samples are incubated with the cells for 30 minutes prior to adding the appropriate stimulating ligand. The media we add to the wells is designed for the detection of NF-κB induced SEAP expression. After a 16-20 hr incubation we read the OD at 650 nm on a Beckman Coulter AD 340C Absorbance Detector.
Target sequence in this assay (O00206 24-839): as the sequence (O00206 24-839, species assumed) above
Target sequence in this assay (Q9Y6Y9 17-160 limits assumed): as the sequence (Q9Y6Y9 17-160 limits assumed, species assumed) above

[5] = 20 mg/kg, 9 hours post Con A challenge, P<0.05 vs vehicle
[6] = 50 mg/kg PO, result in words (FIG. 2)

Row | Structure (SMILES) | reported TLR4 antagonist [1] | effect on elevated liver NK cells [2] | effect on elevated liver NKT cells [2] | effect on elevated liver mononuclear cells [2] | reduction of IL-5 in the liver [3, 5] | reduction of IL-6 in the liver [3, 5] | % of Inhibition of NF-κB ([4]; HEK293 cells expressing TLR4, LPS 50 pg/mL, compound 10 μM) | inhibition of LPS-induced TLR4 activation ([4]; at various concentrations) | inhibition of Con A-induced elevation of ALT [3, 6] | inhibition of Con A-induced elevation of AST [3, 6] | reduction of IL-5 in the serum ([3]; 50 mg/kg, 6 hours post Con A challenge) | reduction of IL-5 in the liver ([3]; 50 mg/kg, 24 hours post Con A challenge)
1 | O=C1CC[C@@]2(O)[C@H]3Cc4ccc(O)c5c4[C@@]2(CCN3CC2CC2)[C@H]1O5 [Compound A, naltrexone] | TLR4 antagonist | suppressed | suppressed | suppressed | 21% | 32% | – | – | – | – | – | –
2 | COc1ccc2c(c1)[C@@]13CCCC[C@H]1[C@@H](C2)NCC3 [Compound C, 3-methoxymorphinan] | – | suppressed | suppressed | suppressed | – | – | – | – | – | – | – | –
3 | Oc1ccc2c(c1)[C@@]13CCCC[C@H]1[C@@H](C2)NCC3 [Compound D, 3-hydroxymorphinan] | – | suppressed | suppressed | suppressed | – | – | – | – | – | – | – | –
4 | C=C1CC[C@@]2(O)[C@H]3Cc4ccc(O)c5c4[C@@]2(CCN3CC2CC2)[C@H]1O5 [Compound B, nalmefene] | – | suppressed | suppressed | suppressed | – | – | 21% | weak inhibition | significant (P<0.05) inhibition | significant (P<0.05) inhibition | 64% | 16%
